Experimental data: patent US20250241586A1, “Bioavailability and bioequivalence through intrinsic activity and KD measurements, in vivo, in humans” (priority 2024, published 2025)
Where two headings read alike, the source gives them in different places.

Legend:
benzodiazepine receptors = assay: Sleep time in human male volunteers; in vivo KD from reciprocals plot; conditions: for A Free drug**: free drug quantity crossing the blood brain barrier
Experimental: Drug action is measured by the following parameters all measured in vivo in living animals/humans. • A) Onset time and threshold dose/concentration (minimum dose/concentration to initiate the effect,) these indicate the potency of the drug. • B) Intrinsic Activity or the maximum possible effect, • C) Dissociation constant. Its reciprocal measures the affinity of the drug for the receptor. The above named, parameters have been measured as stated below:
The literature also notes that there could be huge differences in in vivo and in vitro values and in such cases in vivo values are to be taken, if available (1). […] A point in this regard is that many drugs act on multiple receptor systems and in such cases the response is to be chosen such that only one receptor system is involved. […] The assumption is valid since the amount of bound drug is negligible compared to the total amount of drug at receptor and may be neglected. […] Alprazolam was administered to human male volunteers with sound health, of average weight and having normal creatinine clearance in the doses of 4 mcg/kg, 6 mcg/kg and 8 mcg/kg, and onset and sleep times noted. • The amount of free drug crossing the blood brain barrier was obtained.

[1] = biological target: K+ channels of the beta cells of the pancreas (Homo sapiens, UniProt Q09428); conditions: for KD: in vivo in humans, from slope of 1/fractional response vs 1/A plot
[2] = in vitro and cell culture; read-out: KD literature values; cited from earlier work

Sequence of K+ channels of the beta cells of the pancreas (Q09428 whole entry): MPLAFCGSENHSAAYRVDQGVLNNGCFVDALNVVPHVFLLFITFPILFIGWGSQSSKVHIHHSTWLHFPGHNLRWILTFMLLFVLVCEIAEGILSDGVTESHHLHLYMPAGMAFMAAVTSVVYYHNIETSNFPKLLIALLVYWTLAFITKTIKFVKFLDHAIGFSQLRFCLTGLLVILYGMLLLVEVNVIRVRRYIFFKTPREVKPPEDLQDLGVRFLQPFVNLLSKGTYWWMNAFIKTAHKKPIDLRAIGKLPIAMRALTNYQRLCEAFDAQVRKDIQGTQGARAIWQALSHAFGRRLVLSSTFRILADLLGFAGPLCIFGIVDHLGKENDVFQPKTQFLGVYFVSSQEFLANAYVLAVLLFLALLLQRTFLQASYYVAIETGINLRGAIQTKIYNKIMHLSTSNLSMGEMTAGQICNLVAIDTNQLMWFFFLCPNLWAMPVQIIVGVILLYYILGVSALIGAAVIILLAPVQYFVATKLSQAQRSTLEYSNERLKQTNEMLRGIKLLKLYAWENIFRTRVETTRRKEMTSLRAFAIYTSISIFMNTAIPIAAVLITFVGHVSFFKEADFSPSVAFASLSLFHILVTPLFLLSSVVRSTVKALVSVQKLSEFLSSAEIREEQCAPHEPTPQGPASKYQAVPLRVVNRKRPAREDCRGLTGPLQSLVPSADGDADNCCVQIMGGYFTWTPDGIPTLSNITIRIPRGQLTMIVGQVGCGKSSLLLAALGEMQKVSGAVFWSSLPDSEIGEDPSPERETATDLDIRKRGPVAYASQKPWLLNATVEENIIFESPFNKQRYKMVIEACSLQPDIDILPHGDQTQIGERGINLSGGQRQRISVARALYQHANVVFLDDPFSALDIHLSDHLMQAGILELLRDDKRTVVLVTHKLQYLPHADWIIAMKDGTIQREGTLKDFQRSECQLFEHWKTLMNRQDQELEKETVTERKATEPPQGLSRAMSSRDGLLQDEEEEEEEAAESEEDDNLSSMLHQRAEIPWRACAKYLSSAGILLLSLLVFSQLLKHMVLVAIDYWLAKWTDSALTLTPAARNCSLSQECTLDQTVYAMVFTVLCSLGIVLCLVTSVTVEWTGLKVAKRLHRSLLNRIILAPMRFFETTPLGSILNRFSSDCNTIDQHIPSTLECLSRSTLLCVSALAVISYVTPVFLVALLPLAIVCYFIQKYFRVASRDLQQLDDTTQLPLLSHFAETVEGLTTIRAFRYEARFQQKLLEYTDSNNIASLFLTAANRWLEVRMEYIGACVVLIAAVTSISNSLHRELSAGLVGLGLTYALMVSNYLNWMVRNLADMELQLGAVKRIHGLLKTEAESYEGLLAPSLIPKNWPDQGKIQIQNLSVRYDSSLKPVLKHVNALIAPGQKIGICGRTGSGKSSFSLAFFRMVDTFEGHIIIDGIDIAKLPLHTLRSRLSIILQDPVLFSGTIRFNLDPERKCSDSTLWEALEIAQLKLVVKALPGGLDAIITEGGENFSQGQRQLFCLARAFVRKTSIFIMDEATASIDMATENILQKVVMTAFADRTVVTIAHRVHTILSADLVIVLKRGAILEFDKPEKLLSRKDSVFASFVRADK
Sequence of K+ channels of the beta cells of the pancreas (Q14654 whole entry partner): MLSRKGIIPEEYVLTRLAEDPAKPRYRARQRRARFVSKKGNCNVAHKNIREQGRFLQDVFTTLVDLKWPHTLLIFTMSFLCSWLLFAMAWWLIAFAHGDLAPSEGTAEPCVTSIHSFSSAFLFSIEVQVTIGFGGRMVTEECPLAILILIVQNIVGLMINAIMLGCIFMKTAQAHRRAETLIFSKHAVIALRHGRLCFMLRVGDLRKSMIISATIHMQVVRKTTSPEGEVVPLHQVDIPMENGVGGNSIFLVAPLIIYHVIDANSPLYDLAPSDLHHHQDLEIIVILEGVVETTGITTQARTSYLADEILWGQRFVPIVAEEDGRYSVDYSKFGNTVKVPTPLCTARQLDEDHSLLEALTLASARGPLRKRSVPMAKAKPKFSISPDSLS

Cc1nnc2n1-c1ccc(Cl)cc1C(c1ccccc1)=NC2 [Alprazolam, alprazolam]
1/A (benzodiazepine receptors; alprazolam dose 4 Mcg/kg): 225.8
1/Fractional response (benzodiazepine receptors; alprazolam dose 4 Mcg/kg): 3.8
Response sleep time (benzodiazepine receptors; alprazolam dose 4 Mcg/kg): 63 min
A Free drug** (benzodiazepine receptors; alprazolam dose 4 Mcg/kg): 0.0044 Mcg/ml
1/A (benzodiazepine receptors; alprazolam dose 6 Mcg/kg): 151.4
1/Fractional response (benzodiazepine receptors; alprazolam dose 6 Mcg/kg): 2.4
Response sleep time (benzodiazepine receptors; alprazolam dose 6 Mcg/kg): 100 min
A Free drug** (benzodiazepine receptors; alprazolam dose 6 Mcg/kg): 0.0066 Mcg/ml
1/A (benzodiazepine receptors; alprazolam dose 8 Mcg/kg): 49.8
1/Fractional response (benzodiazepine receptors; alprazolam dose 8 Mcg/kg): 1.0
Response sleep time (benzodiazepine receptors; alprazolam dose 8 Mcg/kg): 241 min
A Free drug** (benzodiazepine receptors; alprazolam dose 8 Mcg/kg): 0.0088 Mcg/ml
Threshold dose (benzodiazepine receptors; humans): 4 mcg/kg bodyweight
Kd (benzodiazepine receptors; in vivo in humans, response sleep time, free drug crossing the blood brain barrier, slope of reciprocals plot): 50.8 nM

CCC1=C(C)CN(C(=O)NCCc2ccc(S(=O)(=O)NC(=O)N[C@H]3CC[C@H](C)CC3)cc2)C1=O [Glimepride, glimepride]
1/Fractional response ([1]; glimepride dose 5 Mcg/kg): 17.24
Response AUC reduction ([1]; glimepride dose 5 Mcg/kg): 30 mg·h/dL
1/Fractional response ([1]; glimepride dose 10 Mcg/kg): 4.48
Response AUC reduction ([1]; glimepride dose 10 Mcg/kg): 115 mg·h/dL
1/Fractional response ([1]; glimepride dose 20 Mcg/kg): 1.0
Response AUC reduction ([1]; glimepride dose 20 Mcg/kg): 514 mg·h/dL
KD [1]: KD = 2.018 nM
KD ([1]; listed as glimepride): 2.0 nM
Threshold dose ([1]; point of inflection of log dose response curve, humans): 5 mcg/kg body weight

Cc1cnc(C(=O)NCCc2ccc(S(=O)(=O)NC(=O)NC3CCCCC3)cc2)cn1 [Glipizide, glipizide]
KD [1]: KD = 8.98 nM
KD ([1]; listed as glipizide): 8.98 nM
Kd [2]: ~10 nM
